Read-outs that look alike come from different tables or passages of the source.
Tests used:
[1] = test system: endogenous thrombin potential in normal donor plasma (PPP); assay: Thrombin generation test (endogenous thrombin potential) in normal donor plasma; type: biochemical; conditions: read-out: IC50 (50% reduction in endogenous thrombin potential)
Excerpt: This method was described in detail in many papers (Hemker H C, Giesen P L, Ramjee M, Wagenvoord R, Beguin S. The thrombogram: monitoring thrombin generation in platelet-rich plasma. Thromb. Haemost., 2000; 83(4): 589-591; Hemker H C, AlDieri R, Beguin S. Thrombin generation assays: accruing clinical relevance. Curr. Opin. Hematol., 2004, 11(3):170-175; Hemker H C, Giesen P, AlDieri R, Regnault V, de Smed E, Wagenvoord R, Lecompte T, Beguin S. The calibrated automated thrombogram (CAT): a universal routine test for hyper- and hypocoagulability. Pathophysiol. Haemost. Thromb., 2002, 32(5-6):249-253). The test is used to measure the kinetics and total quantity of active thrombin generated in a plasma sample over a specified time at a standard clotting activation level in the sample. These applicants' method is suitable for measuring thrombin concentration using a slow-action fluorogenic substrate (BOC-Ile-Gly-Arg-AMC), which gives a highly fluorescent product, 7-amino-4-methylcoumarin (AMC), when broken d own by thrombin. The use of a fluorogenic, rather than chromogenic, substrate is dictated by the fact that the fluorescence level in the sample is virtually unaffected by the solid fibrin clot formed in the metering cell, but this is a qualification that restricts the application of a chromogenic substrate (Hemker H C, Giesen P, AlDieri R, Regnault V, de Smed E, Wagenvoord R, Lecompte T, Beguin S. The calibrated automated thrombogram (CAT): a universal routine test for hyper- and hypocoagulability. Pathophysiol. Haemost. Thromb., 2002, 32(5-6):249-253). On the other hand, it is common knowledge that the bulk of thrombin (about 95%) in the sample is generated after the first clot has already formed (Hemker H C, AlDieri R, Beguin S. Thrombin generation assays: accruing clinical relevance. Curr. Opin. Hematol., 2004, 11(3):170-175).
The kinetics of thrombin generation and ultimately loss in plasma after clotting activation is shown in FIG. 1, which illustrates the relationship between concentration of active thrombin in a plasma sample and time. The area under the thrombin generation time curve (in this invention, from 0 to 50 minutes of incubation) is called endogenous thrombin potential (ETP). The curve is further characterized by tmax, the time when thrombin in the sample reaches maximum concentration, Amax, the maximum thrombin concentration in the system, and tlag, the time before clotting commencement, which is conventionally the time when thrombin reaches a concentration of 5 nM.
Obviously, important clotting information is contained in the shape of thrombin concentration to time curves, as well as the integral ETP level. In particular, against the background of low factor and clotting inhibitor concentration, thrombin concentration maximums can be lower and also broader, although the total ETP might not change at all. The presence of additional thrombin inhibitors in plasma must reduce ETP and maximum attainable thrombin concentration, and increase the clotting lag and the time required for thrombin to achieve maximum concentration.
Measurements were taken as follows: 90 microliters of normal donor plasma (PPP), 0 to 20 microliters of the test substance solution, and 20 to 0 microliters of buffering solution (20 mM of HEPES, 140 mM of NaCal, pH 7.5) were deposited in the holes of a 96 hole board so that the total volume of added substance and buffer is always 20 microliters. Whereupon 20 microliters of a fluorogenic substrate solution (at 5 mM initial concentration) was added to each of the board holes, and plasma was heated for 3 to 5 minutes at 37° C. Next, 25 microliters of a clotting activator solution was added simultaneously (using a multichannel pipette) to all the holes. A thromboplastin solution prepared from a standard thromboplastin reagent diluted to 1/250th of its original concentration by the same buffer further containing 80 mM of CaCl2 to measure the prothrombin time (PT) (RENAM, Russia) was used as activator. […]

[2] = Argatroban after clinical testing; cited from earlier work
Acute toxicity, LD50 = conditions: mouse, in vivo, mice
[3] = test system: clot growth in platelet-free plasma; assay: Clot growth rate in space (light scattering) in platelet-free plasma; type: biochemical; conditions: 1 mcM of the compound in normal plasma versus plasma control, FIG. 9-11
Excerpt: The clot growth rate in space describes the dynamics of clotting, which is a process that develops over time and across space. This method measures light scattering to determine the size of the clot at different periods of time once clotting has begun. Clotting is activated in the system by an activator precisely localized in space without stirring. The activator was alternatively either a simple glass plate having a ground edge to cause contact activation on the internal path or fibroblast-coated polyethylene terephthalate films provided on the surface with a tissue factor to activate clotting on the external path. […]
Light scattering profiles corresponding to different time moments from the start of the experiment were obtained by processing the series of recorded images. […] The clot size in each frame was determined as the distance from the activator to the clot edge assumed to be the point where light scattering was half the maximum value. […]
The last output processing stage was calculating the clot growth rate on the basis of the light scattering profiles obtained. The clot size was assessed at each point of time as the distance of a respective light scattering profile from the activator (at half-point of the maximum profile height). […] The quasi-stationary growth rate of the clot was calculated from the inclination angle of the linear portion of the curve.

[4] = test system: endogenous thrombin potential in diluted donor platelet-free plasma; assay: ETP in plasma diluted with NaCl 0.9% plasma-substituting solution containing inhibitor; type: biochemical; conditions: 0.25-0.5 mcM in NaCl 0.9% solution; plasma diluted at a ratio of 1.5 to 4, FIG. 12
Experimental: Donor blood prepared on a 3.8% sodium citrate at a 9:1 ratio of blood to citrate (20 ml) was centrifuged for 15 minutes at 1,300 g. Some of the platelet-poor plasma (PPP) was centrifuged for another 10 minutes at 10,000 g to obtain a platelet-free plasma (PFP). The PFP thus produced was then used for measuring the endogenous thrombin potential.
PFP was diluted at a ratio of 1.5, 2, 3 and 4 with either transfusion-grade physiological saline (NaCl 0.9%) or with the same solution containing additionally a thrombin inhibitor HC-025s-IOC (at concentrations of 0.25, 0.5 or 1 mcM). For constant concentration of Ca^+2 to be maintained through the tests after recalcification, sodium citrate concentration was maintained constant in all plasma dilutions to be identical to the concentration in initial undiluted plasma, for which purpose the initial plasma-substituting solutions used to dilute the plasma were first mixed with 3.8% sodium citrate similarly with initial blood at a 9:1 solution to citrate ratio.
The plasma sample used in the above-described ETP measurement method was always diluted at a 1.5 ratio throughout. An opportunity must be provided to measure ETP in undiluted plasma in experiments to dilute plasmas with PSS. […] Endogenous thrombin potential was measured for each of the diluted plasmas in the presence of different concentrations of HC-025s-IOC.

Row | SMILES | IC50 [1] | other results
1 | C/N=C(/N)CSCCCOc1cc(C)cc(OS(=O)(=O)c2ccccc2Cl)c1 [HC_033s_IOC] | 0.527 µM | –
2 | CC1CNc2c(cccc2S(=O)(=O)N[C@@H](CCCNC(=N)N)C(=O)N2CC[C@@H](C)C[C@@H]2C(=O)O)C1 (stereo partly drawn) [Argatroban] | – | LD50 [2]: 475 mg/kg
3 | Nc1cc[n+](CCOc2cccc(NS(=O)(=O)c3ccccc3)c2)cc1 [HC_041s_IOC] | 1.6 µM | –
4 | Cc1cc(OCC[n+]2ccsc2N)cc(OS(=O)(=O)c2ccccc2Cl)c1 [HC_045s_IOC] | 16 µM | –
5 | Cc1ccc(S(=O)(=O)Oc2cc(C)cc(OCC[n+]3ccc(N)cc3)c2)cc1 [HC_038s_IOC] | ~4 µM | –
6 | Cc1cc(OCCC[n+]2ccc(N)cc2)cc(OS(=O)(=O)c2ccccc2)c1 [HC-016s-IOC, 4-amino-1-(3-(3-methyl-5-(benzenesulfonyloxy)phenoxy)propyl)-pyridinium iodide] | ~240 µM | –
7 | Cc1cc(OCC[n+]2ccc(N)nc2)cc(OS(=O)(=O)c2ccccc2)c1 [HC_047s_IOC] | 2.5 µM | –
8 | Cc1cc(OCCSC(=N)N)cc(OS(=O)(=O)c2ccccc2S(C)(=O)=O)c1 [HC_040s_IOC] | 0.8 µM | –
9 | Cc1cc(OCCCSC(=N)N)cc(OS(=O)(=O)c2ccccc2F)c1 [HC_031s_IOC] | 1.24 µM | –
10 | Cc1cc(OCC[n+]2ccc(N)cc2)cc(OS(=O)(=O)c2ccccc2)c1 [HC-019s-IOC, 4-amino-1-(2-(3-methyl-5-(benzenesulfonyloxy)phenoxy)ethyl)-pyridinium iodide] | 0.25 µM | LD50 (Acute toxicity, LD50; 0.9% NaCl + cremophor 20%): > 278 mg/kg
11 | Cc1cc(OCC[n+]2ccc(N)cc2)cc(OS(=O)(=O)c2ccccc2S(C)(=O)=O)c1 [HC_036s_IOC] | 0.158 µM | –
12 | Cc1cc(OCCCn2ccsc2=N)cc(OS(=O)(=O)c2ccccc2)c1 | 24.8 µM | LD50 (Acute toxicity, LD50; 0.9% NaCl): > 199 mg/kg
13 | Cc1cc(OCC[n+]2ccc(N)cc2)cc(OS(=O)(=O)c2ccccc2F)c1 [HC_037s_IOC] | ~0.1 µM | –
14 | CNc1ccc(S(=O)(=O)N(C)c2ccccc2)cc1NC(=O)CC[n+]1ccc(N)cc1.[Cl-] [HC_028s_IOC] | ~9 µM | LD50 (Acute toxicity, LD50; 0.9% NaCl + cremophor 20%): 257 ± 31 mg/kg
15 | Cc1cc(OCC[n+]2ccc(N)cc2)cc(OS(=O)(=O)c2ccccc2Cl)c1.[I-] [HC-025s-IOC, 4-amino-1-(2-(3-methyl-5-(2-chlorobenzenesulfonyloxy)phenoxy)ethyl)-pyridinium iodide] | 0.26 µM | Spatial clot growth dynamics (clot size versus time) [3]: inhibits clotting; ETP readings for different plasma dilutions [4]: closest thing to normal
16 | Cc1cc(OCCCSC(=N)N)cc(OS(=O)(=O)c2ccccc2)c1.I [HC-018s-IOC, 3-(3-methyl-5-(benzenesulfonyloxy)phenoxy)propyl-isothiouronium iodide] | – | LD50 (Acute toxicity, LD50; 0.9% NaCl + cremophor 20%): < 441 mg/kg
17 | Cc1cc(OCC[n+]2ccc(N)cc2)cc(OS(=O)(=O)c2ccc(Cl)cc2)c1 [HC_039s_IOC] | 0.15 µM | –
18 | Cc1cc(OCCC[n+]2ccsc2N)cc(OS(=O)(=O)c2ccccc2F)c1 [HC_030s_IOC] | ~8.6 µM | –
19 | Cc1cc(OCCC[n+]2ccc(N)cc2)cc(OS(=O)(=O)c2ccccc2F)c1 [HC_029s_IOC, 4-amino-1-(3-(3-methyl-5-(2-fluorobenzenesulfonyloxy)phenoxy)propyl)-pyridinium iodide] | 27 µM | –
20 | C/N=C(/N)SCCCOc1cc(C)cc(OS(=O)(=O)c2ccccc2Cl)c1 [HC_032s_IOC] | 25.2 µM | –
21 | Cc1cc(OCCSC(=N)N)cc(OS(=O)(=O)c2ccccc2)c1 [HC-020s-IOC, 2-(3-methyl-5-(benzenesulfonyloxy)phenoxy)ethyl-isothiouronium iodide] | – | LD50 (Acute toxicity, LD50; 0.9% NaCl + cremophor 20%): > 1110 mg/kg
22 | Cc1cc(OCCC[n+]2ccc(N)cc2)cc(OS(=O)(=O)c2ccccc2Cl)c1 [HC-023s-IOC] | 40 µM | –

Reference: patent publication US8426433B2, priority 2007, dated 2013)
